{
  "source": "patent US20220304957A1",
  "about": "“ANTI-CANCER COMPOSITIONS AND METHODS OF USE” (Board of Supervisors of Louisiana State University and …, priority 2019, published 2022)",
  "key": {"[1]": {"experiment": "Temozolomide pharmacokinetics and CNS penetration (literature)", "assay_type": "in vivo, human", "settings": "from 20% of plasma concentration", "from_the_text": "An efficient treatment of GBM is difficult to develop for a series of reasons. First, GBM is characterized by many dysregulated pathways that can hardly be all blocked and repaired at the same time with a single therapy [Alifieris, C.; Trafalis, D. T. “Glioblastoma multiforme: pathogenesis and treatment” Pharmacol. Ther. 2015, 152, 63-82.]. Second, GBM partly consists of infiltrating cells that cannot easily be all removed by surgery. Third, GBM early diagnosis is not carried out routinely. Sensitive imaging techniques, such as MRI are still too expensive to be carried out on a regular basis over the whole population. Fourth, the optimization of a clinical protocol for GBM treatment requires the use of an accurate and representative preclinical GBM model. Currently used mouse and rat models are not appropriate because their tumors are typically ˜10^3-10^4 smaller than human GBM [Biasibetti, E.; Valazza, A.; Capucchio, M. T.; Annovazzi, L.; Battaglia. L.; Chirio, D.; Gallarate, M.; Mellai, M.; Muntoni, E.; Peira, E.; Riganti, C.; Schiffer, D.; Panciani, P.; Lanotte, M. “Comparison of Allogeneic and Syngeneic Rat Glioma Models by Using MRI and Histopathologic Evaluation” Comp. Med. 2017, 67, 147-156.]. […]"}, "[2]": {"settings": "cited from earlier work"}},
  "data": [
    {"smiles": "Cn1nnc2c(C(N)=O)ncn2c1=O", "note": "[TMZ, temozolomide]", "values": [
      {"measurement": "experimentally estimated log BB (Brain-Blood Distribution)", "setting": "[1]", "value": "around −0.7"},
      {"measurement": "concentration in brain and cerebrospinal fluid, % of the plasma concentration", "setting": "[2]; 35 patients with malignant gliomas", "value": "approximately 20%"},
      {"measurement": "elimination half-life", "setting": "[2]; oral administration", "value": "approximately 1.8 hours"}
    ]}
  ]
}
